“And” between values parts separate entries of the source, which are not always exact repeats. Equal entries are not always repeated.
Legend:
human FAP = biological target: T1, human FAP (Homo sapiens, UniProt Q12884); experiment: FAP inhibition assay (IC50, Z-Gly-Pro-AMC substrate); assay type: biochemical; settings: for IC50: Z-Gly-Pro-AMC 50 μM, pH 8, 15 min pre-incubation at 37 °C; for Selectivity index (IC50 PREP / IC50 FAP): ratio of the IC50 values for FAP and PREP
T1 construct: the human secretion signal was replaced with the HoneyBee mellitin secretion signal; HoneyBee mellitin secretion signal (replaces the native signal-anchor) (N); C-terminal tag of the BaculoDirect C-term kit (C); made in house; host or cells: Sf9 insect cells (baculovirus); purified from the supernatant
T1 sequence (Q12884 26-760 limits assumed): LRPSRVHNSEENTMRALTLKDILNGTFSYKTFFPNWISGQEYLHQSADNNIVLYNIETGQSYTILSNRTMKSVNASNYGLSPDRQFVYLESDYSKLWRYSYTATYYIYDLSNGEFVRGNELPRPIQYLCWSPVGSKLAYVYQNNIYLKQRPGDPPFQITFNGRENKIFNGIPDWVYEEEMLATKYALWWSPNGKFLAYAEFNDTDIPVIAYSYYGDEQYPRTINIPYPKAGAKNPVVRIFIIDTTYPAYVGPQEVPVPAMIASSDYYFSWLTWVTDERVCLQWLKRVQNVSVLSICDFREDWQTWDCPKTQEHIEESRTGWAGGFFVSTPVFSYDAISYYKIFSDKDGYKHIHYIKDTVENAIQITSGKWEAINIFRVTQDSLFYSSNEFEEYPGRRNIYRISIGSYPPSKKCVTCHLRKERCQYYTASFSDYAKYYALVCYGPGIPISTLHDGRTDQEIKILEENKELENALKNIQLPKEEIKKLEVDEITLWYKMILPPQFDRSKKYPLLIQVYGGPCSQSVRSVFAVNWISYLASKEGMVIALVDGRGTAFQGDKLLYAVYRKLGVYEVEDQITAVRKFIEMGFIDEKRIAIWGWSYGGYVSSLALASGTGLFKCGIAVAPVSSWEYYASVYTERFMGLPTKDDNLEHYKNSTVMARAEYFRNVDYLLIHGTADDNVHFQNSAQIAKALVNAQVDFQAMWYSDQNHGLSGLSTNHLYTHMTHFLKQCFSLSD
From the text: (§1) Enzymes: A gateway-entry clone for human FAP was purchased from Dharmacon (Accession number DQ891423) and the human secretion signal was replaced with the HoneyBee mellitin secretion signal. For transfection and expression of FAP in Sf9 insect cells, the C-terminal BaculoDirect kit from LifeTechnologies was used. The enzyme was purified from the supernatant of the insect cells using immobilized Ni-chelating chromatography (GE healthcare, Diegem, Belgium), followed by anion-exchange chromatography using a 1 mL HiTrap Q (GE healthcare, Diegem, Belgium). Human recombinant PREP was expressed in BL21(DE3) cells and purified using immobilized Co-chelating chromatography (GE healthcare) followed by anion-exchange chromatography on a 1 ml Mono Q column (GE healthcare).
(§2) Eight concentrations of inhibitors were tested. The final DMSO concentration was kept constant during the experiment to exclude any solvent effects. Inhibitors were pre-incubated with the enzyme for 15 min at 37 °C, afterwards the substrate was added and the velocities of AMC release were measured kinetically at λex = 380 nm, λem = 465 nm for at least 10 min at 37 °C. The Infinite 200 (Tecan Group Ltd.) micro-titer plate reader and the Magellan software were used for measurement and data processing respectively.
(§3) The data were fitted using a non-linear fit model in GraFit 7 software, according to the following equation: y=range/1+x/IC50^s where y is the value of the residual enzymatic activity compared to a non-inhibited sample, x is the final inhibitor concentration in the assay, s is the slope factor and the IC50 is the half maximal inhibitory concentration.

Human recombinant PREP = biological target: T2, Human recombinant PREP (Homo sapiens, UniProt P48147); experiment: PREP inhibition assay (IC50, N-succinyl-Gly-Pro-AMC substrate); assay type: biochemical; settings: N-succinyl-Gly-Pro-AMC 250 μM, pH 7.4, 15 min pre-incubation at 37 °C
T2 sequence (P48147 1-710): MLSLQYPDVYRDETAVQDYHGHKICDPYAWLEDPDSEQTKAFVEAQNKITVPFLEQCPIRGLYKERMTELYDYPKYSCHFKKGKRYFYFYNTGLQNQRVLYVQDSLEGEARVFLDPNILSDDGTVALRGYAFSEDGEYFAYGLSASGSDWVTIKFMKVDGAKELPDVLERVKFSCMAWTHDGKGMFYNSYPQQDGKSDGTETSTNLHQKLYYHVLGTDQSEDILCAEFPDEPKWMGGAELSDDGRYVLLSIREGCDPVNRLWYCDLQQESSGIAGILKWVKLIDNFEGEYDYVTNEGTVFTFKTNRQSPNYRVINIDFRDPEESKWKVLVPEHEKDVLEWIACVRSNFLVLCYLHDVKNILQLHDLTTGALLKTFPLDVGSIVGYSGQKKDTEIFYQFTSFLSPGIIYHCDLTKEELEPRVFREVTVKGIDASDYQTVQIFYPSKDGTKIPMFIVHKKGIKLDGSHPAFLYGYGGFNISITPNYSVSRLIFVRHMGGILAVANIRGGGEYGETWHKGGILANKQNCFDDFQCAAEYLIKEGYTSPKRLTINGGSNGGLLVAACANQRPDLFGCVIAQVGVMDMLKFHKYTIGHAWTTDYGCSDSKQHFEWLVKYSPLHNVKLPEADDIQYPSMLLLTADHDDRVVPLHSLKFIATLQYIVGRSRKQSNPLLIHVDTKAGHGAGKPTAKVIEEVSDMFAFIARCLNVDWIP
From the text: as §1
as §2, with “concentration is” for “concentration was”, “any” for “any solvent”, “data processing,” for “data processing”
as §3

[1] = Stability studies of gallium-68 complexes in media (EtOH, human serum, saline, PBS); assay type: physicochemical
Description: (§4) Gallium-68 stability studies against transmetallation (Fe, Cu, Ca, Mg), transchelation (EDTA, DTPA) as well as in HS, EtOH and saline (0.9% isotone NaCl-solution) were performed. 50 μl of the [^68Ga]Ga-DOTA.SA.FAPi labeling solution with > 95% radiochemical purity were added to 1 mL of the respective media. The measured time points for gallium-68 were 15, 30, 45, 60, 90, 120 min. HS (human male AB plasma, USA origin) was bought from Sigma Aldrich, PBS was purchased from Sigma Aldrich and 0.9% saline from B. Braun Melsungen AG (Melsungen, Germany).

[2] = Gallium-68 stability against transmetallation (Fe, Cu, Ca, Mg) and transchelation (EDTA, DTPA); assay type: physicochemical
Description: as §4

HT-29 xenograft mice [3] = experiment: Micro-PET/CT imaging in HT-29 tumor-bearing mice; assay type: in vivo, mouse; settings: PET 60 min p.i.
Description: (§5) In vivo tumor model: HT-29 (human colon adenocarcinoma, ATCC, Rockville, Maryland) cells were routinely cultured in Dulbecco’s Modified Eagle Medium supplemented with 10% heat inactivated foetal bovine serum (FBS), 2 mM glutamine, 1% sodium pyruvate and 1% penicillin/streptomycin (Gibco, Life technologies). After detaching the cells, the number of viable cells was counted with the automated Muse™ Cell Analyzer (Merck Millipore). For the HT-29 subcutaneous model, 10.10^6 viable cells, suspended in 100 μl PBS, were inoculated in the right hind leg of female 6-week-old CD1^−/− Foxn1nu mice (n = 3), obtained from Charles River Laboratories (L’Arbresle, France). The animals were kept under environmentally controlled conditions (12 h light/dark cycle, 20–24 °C and 40–70% relative humidity) with food and water ad libitum. When tumors reached an approximate volume of 400 mm^3, 3 mice underwent μPET imaging. All experimental procedures and protocols were performed in accordance with European Directive 86/609/EEC Welfare and Treatment of Animals and were approved by the local ethical commission (2017–070, University of Antwerp, Belgium).
Micro-PET imaging: Micro-PET scans were carried out using an Inveon small-animal PET/CT scanner (Siemens), after i.v. injection of 4 nmol of [^68Ga]-DOTA.SA.FAPi (8.6 MBq, molar activity of 2.1 GBq/ μmol) into tumor bearing mice (n = 3), under isoflurane anesthesia (5% for induction, 2% for maintenance). Static whole-body PET images were acquired 60 min after injection of the radiotracer. Following each PET acquisition, a whole-body CT scan was acquired to obtain the animal’s anatomical information individually.
For quantitative analysis, PET data were reconstructed using 3-dimensional ordered subset expectation maximization (OSEM3D, 16 subsets and 2 iterations) and 18 maximum a posteriori (MAP) iterations including scatter and attenuation correction (matrix size, 128 × 128 × 159; voxel size, 0.776 × 0.776 × 0.776 mm;). Volumes of interest (VOIs) were manually drawn on the PET/CT images using PMOD (version 3.6; PMOD Technologies) to delineate the tumor, heart and muscle.

HT-29 xenograft mice [4] = experiment: Ex vivo biodistribution in HT-29 xenograft mice; set-up: species or system mouse
Description: as §5
Ex vivo biodistribution: Immediately after the CT scans, the animals were sacrificed, the blood, tissues and organs were collected, weighed and the radioactivity was measured using an automatic γ-counter (Wizard^2 2480, PerkinElmer). Values were expressed as percentage of the injected dose per gram (%ID/g).

[5] = HT-29 xenograft mice, 1 h p.i., N=3
[6] = ex vivo biodistribution, 1 h p.i.

## CN(CC(=O)O)C1(CCCCC(=O)NCCNc2c(NCCCCOc3ccc4nccc(C(=O)NCC(=O)N5CC(F)(F)C[C@H]5C#N)c4c3)c(=O)c2=O)CN(CC(=O)O)CCN(CC(=O)O)C1 [DATA^5m.SA.FAPi, (S)-2,2′-(6-((carboxymethyl)(methyl)amino)-6-(5-((2-((2-((4-((4-((2-(2-cyano-4,4-difluoropyrrolidin-1-yl)-2-oxoethyl)carbamoyl)quinolin-6-yl)oxy)butyl)amino)-3,4-dioxocyclobut-1-en-1-yl)amino)ethyl)amino)-5-oxopentyl)-1,4-diazepane-1,4-diyl) diacetic acid]
Human FAP
  IC50: 0.8 ± 0.2 nM
  Selectivity index (IC50 PREP / IC50 FAP): 2113
Human recombinant PREP
  IC50: 1700 ± 100 nM
[1]; different media (summary statement)
  Stability in different media, intact conjugate: more than 95%

## CN(CC(=O)[O-])C1(CCCCC(=O)NCCNc2c(NCCCCOc3ccc4nccc(C(=O)NCC(=O)N5CC(F)(F)C[C@H]5C#N)c4c3)c(=O)c2=O)CN(CC(=O)[O-])CCN(CC(=O)[O-])C1.[Ga+3] [[^natGa]Ga-DATA^5m.SA.FAPi]
Human FAP
  IC50: 0.7 ± 0.1 nM
  Selectivity index (IC50 PREP / IC50 FAP): 6714
Human recombinant PREP
  IC50: 4700 ± 300 nM

## N#C[C@@H]1CC(F)(F)CN1C(=O)CNC(=O)c1ccnc2ccc(OCCCCNc3c(NCCNC(=O)CN4CCN(CC(=O)[O-])CCN(CC(=O)[O-])CCN(CC(=O)[O-])CC4)c(=O)c3=O)cc12.[Ga+3] [[^natGa]Ga-DOTA.SA.FAPi]
Human FAP
  IC50: 1.4 ± 0.2 nM
Human recombinant PREP
  IC50: 8700 ± 900 nM

## N#C[C@@H]1CC(F)(F)CN1C(=O)CNC(=O)c1ccnc2ccc(OCCCCNc3c(NCCNC(=O)CN4CCN(CC(=O)[O-])CCN(CC(=O)[O-])CCN(CC(=O)[O-])CC4)c(=O)c3=O)cc12.[68Ga+3] [[^68Ga]Ga-DOTA.SA.FAPi]
[1]; ethanol (EtOH), over 2 h at 37 °C
  Stability, intact conjugate: over 98%
[1]; human serum (HS), over 2 h
  Stability, intact conjugate: over 98%
[1]; saline 0.9% (NaCl), over 2 h
  Stability, intact conjugate: over 98%
[2]; against Ca, after 2 h
  Stability against transmetallation: > 95%
[2]; against Cu, after 2 h
  Stability against transmetallation: > 95%
[2]; against DTPA, after 2 h
  Stability against transchelation: over 98%
[2]; against EDTA, after 2 h
  Stability against transchelation: over 98%
[2]; against Fe, after 90 min
  Stability against transmetallation: > 95%
[2]; against Fe, after 2 h
  Stability against transmetallation: over 92%
[2]; against Mg, after 2 h
  Stability against transmetallation: > 95%
HT-29 xenograft mice [3]
  SUVmean heart: 0.15 ± 0.01 and 0.15
  SUVmean kidneys: 0.27 ± 0.11 and 0.27
  SUVmean liver: 0.22 ± 0.08 and 0.22
  SUVmean muscle: 0.18 ± 0.07 and 0.18
  SUVmean small intestine: 0.37 ± 0.14
  SUVmean tumor: 0.75 ± 0.09 and 0.75
HT-29 xenograft mice [4]; HT-29 xenograft mice, 1 h (60 min) p.i., N=3
  Ex vivo biodistribution, Tumor: 5.2 %ID/g
HT-29 xenograft mice [4]; [5]
  Ex vivo biodistribution, Bladder: 0.96 %ID/g
  Ex vivo biodistribution, Blood: 0.56 %ID/g
  Ex vivo biodistribution, Bone: 3.56 %ID/g
  Ex vivo biodistribution, Brain: 1.27 %ID/g
  Ex vivo biodistribution, Fat: 0.38 %ID/g
  Ex vivo biodistribution, Heart: 0.22 %ID/g
  Ex vivo biodistribution, Kidneys: 1.77 %ID/g
  Ex vivo biodistribution, Large Intestine: 0.21 %ID/g
  Ex vivo biodistribution, Liver: 0.70 %ID/g
  Ex vivo biodistribution, Lungs: 0.33 %ID/g
  Ex vivo biodistribution, Muscle: 0.45 %ID/g
  Ex vivo biodistribution, Pancreas: 0.51 %ID/g
  Ex vivo biodistribution, Skin: 0.04 %ID/g
  Ex vivo biodistribution, Small Intestine: 1.81 %ID/g
  Ex vivo biodistribution, Spleen: 0.23 %ID/g
  Ex vivo biodistribution, Stomach: 0.21 %ID/g
HT-29 xenograft mice [4]; [6]
  tumor-to-blood ratio: 9.2 ± 1.1
  tumor-to-bone ratio: 1.5 ± 0.2
  tumor-to-large intestine ratio: 24.9 ± 1.7
  tumor-to-muscle ratio: 11.5 ± 2.2
  tumor-to-small intestine ratio: 2.9 ± 0.8
